Measurements: patent US20220388979A1, “QUINOLINE DERIVATIVES AS PROTEIN KINASE INHIBITORS” (B.C.I. PHARMA, priority 2019, published 2022)
Like-named read-outs stand apart in the source and are kept apart here.

What was measured:
male C57Bl6J mice = assay: Streptozotocin-induced diabetic neuropathic pain model, Von Frey mechanical threshold (compound 32 study); format: in vivo; settings: pregabalin subcutaneous 0.5 mg/mL in phosphate buffer (100 μL/10 g)
Protocol: The experiment has been conducted in 8 weeks old male C57Bl6J mice (from Charles River). For this study, 6 mice per group have been used.
(§1) Diabetes has been induced by a single IP injection of 200 μg/mL streptozotocin solution (100 μL/10 g). Glycemia has been tested before, D+3 and D+7 post-injection. All injected mice presented blood glucose concentration […] at D+7, and then have been used for analgesic testing of the compounds.
(§2) Compound 32 has been orally administrated at 6 mg/mL in Capryol 90 solution (50 μL/10 g) and pregabalin has been subcutaneously injected at 0.5 mg/mL in phosphate buffer (100 μL/10 g) at D+14 and D+16. A time course measurement at +1 h, +2 h, +4 h and +6 h has been performed after compound administration.
(§3) Mechanical threshold response of mice has been measured with calibrated Von Frey filaments using the up/down method, blind for manipulator. Measurements have been performed before streptozotocin injection and 14 days after.
(§4) Statistical analysis was performed using SigmaPlot 12.5 software. Percentage of maximum possible effect is calculated as follow
(§5) % MPE=[(Test−Prest)/(cut-off−Prest)]*100
(§6) Where cut-off, Test and Pretest values correspond respectively to baseline measure, timepoint post-administration measure and measure before administration.

male C57B16J mice = assay: Streptozotocin-induced diabetic neuropathic pain model, Von Frey mechanical threshold (compound 108 study); format: in vivo; settings: pregabalin subcutaneous 0.5 mg/mL in phosphate buffer (100 μL/10 g)
Protocol: The experiment has been conducted in 8 weeks old male C57B16J mice (from Charles River). For this study, 10 mice per group have been used.
as §1
as §2, with “Compound 108” for “Compound 32”, “at 2, 5 and 10” for “at 6”, “in 0.9% NaCl” for “in Capryol 90”, “and D+17.” for “and D+16.”
as §3, §4, §5, §6

CSF1R [1] = molecular target: T1, CSF1R (Homo sapiens, UniProt P07333); assay: HEK-CSF1R-STAT5-Luc reporter assay, M-CSF stimulated; format: cell-based; set-up: host or cells: HEK293T (ATCC CRL-3216); settings: for IC50: 600 ng/ml M-CSF, 24 h, luciferase, read-out: HEK-CSF1R-STAT5 IC 50
T1 sequence (P07333 20-972): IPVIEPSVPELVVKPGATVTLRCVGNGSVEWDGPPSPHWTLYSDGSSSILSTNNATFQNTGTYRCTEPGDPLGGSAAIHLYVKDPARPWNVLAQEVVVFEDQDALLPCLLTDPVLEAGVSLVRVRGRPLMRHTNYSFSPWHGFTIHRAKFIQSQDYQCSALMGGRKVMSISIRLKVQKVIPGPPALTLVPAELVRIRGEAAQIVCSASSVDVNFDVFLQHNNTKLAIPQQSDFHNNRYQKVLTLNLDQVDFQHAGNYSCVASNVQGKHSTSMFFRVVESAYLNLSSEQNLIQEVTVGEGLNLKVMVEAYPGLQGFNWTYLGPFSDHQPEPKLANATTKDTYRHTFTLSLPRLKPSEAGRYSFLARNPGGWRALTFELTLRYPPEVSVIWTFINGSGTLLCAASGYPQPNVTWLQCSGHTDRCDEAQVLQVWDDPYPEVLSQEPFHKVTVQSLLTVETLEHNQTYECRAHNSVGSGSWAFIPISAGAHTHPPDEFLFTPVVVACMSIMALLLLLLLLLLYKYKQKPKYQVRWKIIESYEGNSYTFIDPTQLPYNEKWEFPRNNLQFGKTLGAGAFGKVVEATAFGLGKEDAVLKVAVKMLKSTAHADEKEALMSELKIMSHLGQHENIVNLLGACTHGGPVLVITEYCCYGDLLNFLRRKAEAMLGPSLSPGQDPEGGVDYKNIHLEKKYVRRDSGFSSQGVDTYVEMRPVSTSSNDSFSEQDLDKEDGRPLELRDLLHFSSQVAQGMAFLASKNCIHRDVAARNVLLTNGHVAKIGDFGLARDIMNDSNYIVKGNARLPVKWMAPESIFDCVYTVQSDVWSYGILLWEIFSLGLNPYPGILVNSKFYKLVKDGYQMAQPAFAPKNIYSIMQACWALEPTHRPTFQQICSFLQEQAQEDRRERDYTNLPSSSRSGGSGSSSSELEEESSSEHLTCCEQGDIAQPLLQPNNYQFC
Protocol: HEK-CSF1R-STAT5-Luc: Exponential growing HEK293T cells (ATCC® CRL-3216™), ectopically expressing human CSF1R receptor (Origene) and five copies of a STAT5 response element (STAT5 RE, promega) that drives transcription of the luciferase reporter were seeded at 5·10^3 per 20 μl of complete DMEM medium. The next day, 2.25 μL of test compound dilution were added to each well and stimulated with 600 ng/ml of M-CSF. The plates were incubated for 24 h at 37° C., 5% CO2. Unstimulated and stimulated cells served as reference for […]. At the end of incubation 25 μl of Steady-Glo® Luciferase Assay System (Promega) were added after 5 min of lysis, luminescence was measured on microplate reader (Envision 2105, Perkinelmer).
(§7) IC50 were measured and experiments were performed at least in duplicate.
(§8) Cell-based assays of compounds CC395-CC397, depicted above, against M-NFS-60 and HEK-CSF1R have been performed following the procedures described in example 29 and 30 and compared with their quinoline analogues 32, 44 and 108.

M-NFS-60 cells = assay: Cell proliferation in M-NFS-60 leukemia cell line (WST-1); format: cell-based; settings: for IC50: cell proliferation, 72 h, WST-1, read-out: M-NFS-60 IC 50
Protocol: M-NFS-60: Exponential growing M-NFS-60 cells (ATCC, CRL-1838) were seeded at […]per 200 μl of complete medium with beta-mercaptoethanol and M-CSF (62 ng/mL) or IL34 (500 ng/mL). Twenty μL of test compound dilution were added to each well and the plates were incubated for 72 h at 37° C., 5% CO2. Untreated cells and positive control (0.5% triton X-100, for the last 15 min) served as reference for maximum and minimum viability. At the end of incubation 100 μl of supernatant were removed and replaced by 10 μl of WST-1 solution (Cell Proliferation Reagent WST-1, Roche Applied Science). After 3 h incubation at 37° C., 5% CO2, optical densities were measured at 450 nm and 620 nm for the background on microplate reader (Envision 2105, Perkinelmer).
as §7, §8

FLT3 = molecular target: T2, FLT3 (Homo sapiens, UniProt P36888); assay: Z'-Lyte biochemical kinase assay (SelectScreen), FLT3; settings: at 50 nM, in duplicate
T2 sequence (P36888 27-993): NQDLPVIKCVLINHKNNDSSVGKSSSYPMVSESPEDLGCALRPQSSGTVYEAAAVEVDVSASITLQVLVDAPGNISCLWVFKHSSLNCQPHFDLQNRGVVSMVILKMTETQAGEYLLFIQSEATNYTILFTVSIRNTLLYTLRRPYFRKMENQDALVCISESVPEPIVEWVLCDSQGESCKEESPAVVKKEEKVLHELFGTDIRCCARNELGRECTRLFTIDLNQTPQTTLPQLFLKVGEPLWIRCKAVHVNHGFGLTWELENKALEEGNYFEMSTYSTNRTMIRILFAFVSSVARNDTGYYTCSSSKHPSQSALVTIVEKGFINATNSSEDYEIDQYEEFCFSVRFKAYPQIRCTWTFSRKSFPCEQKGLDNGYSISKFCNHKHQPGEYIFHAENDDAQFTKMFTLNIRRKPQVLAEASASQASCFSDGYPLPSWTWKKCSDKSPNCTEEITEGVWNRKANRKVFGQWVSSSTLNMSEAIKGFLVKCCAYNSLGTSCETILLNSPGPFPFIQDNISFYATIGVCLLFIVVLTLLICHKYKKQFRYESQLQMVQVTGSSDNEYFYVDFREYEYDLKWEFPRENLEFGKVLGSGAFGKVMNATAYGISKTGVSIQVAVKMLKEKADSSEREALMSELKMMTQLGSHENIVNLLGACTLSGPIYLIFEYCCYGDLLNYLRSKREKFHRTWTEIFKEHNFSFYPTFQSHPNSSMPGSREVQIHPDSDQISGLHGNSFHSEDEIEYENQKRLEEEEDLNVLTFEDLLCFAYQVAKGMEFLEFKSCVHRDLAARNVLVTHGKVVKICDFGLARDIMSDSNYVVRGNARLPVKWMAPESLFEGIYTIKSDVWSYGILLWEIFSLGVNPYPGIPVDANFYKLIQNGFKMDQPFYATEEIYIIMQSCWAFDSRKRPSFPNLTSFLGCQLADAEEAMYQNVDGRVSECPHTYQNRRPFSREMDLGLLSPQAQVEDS
Protocol: (§9) A biochemical assay was performed in order to measure the protein kinase inhibition. The kinase binding assays were performed against different kinases using the SelectScreen Biochemical Kinase Profiling Service® platform (Thermo Fisher Scientific). For all kinases, the Z′-Lyte® biochemical kinase assay technology was used. Inhibitions were measured at 50 nM in duplicate for each compound and are reported in percentage.

PDGFRA = PDGFRA (Homo sapiens, UniProt P16234); assay: Z'-Lyte biochemical kinase assay (SelectScreen), PDGFRA; settings: at 50 nM, in duplicate
PDGFRA, sequence (P16234 24-1089): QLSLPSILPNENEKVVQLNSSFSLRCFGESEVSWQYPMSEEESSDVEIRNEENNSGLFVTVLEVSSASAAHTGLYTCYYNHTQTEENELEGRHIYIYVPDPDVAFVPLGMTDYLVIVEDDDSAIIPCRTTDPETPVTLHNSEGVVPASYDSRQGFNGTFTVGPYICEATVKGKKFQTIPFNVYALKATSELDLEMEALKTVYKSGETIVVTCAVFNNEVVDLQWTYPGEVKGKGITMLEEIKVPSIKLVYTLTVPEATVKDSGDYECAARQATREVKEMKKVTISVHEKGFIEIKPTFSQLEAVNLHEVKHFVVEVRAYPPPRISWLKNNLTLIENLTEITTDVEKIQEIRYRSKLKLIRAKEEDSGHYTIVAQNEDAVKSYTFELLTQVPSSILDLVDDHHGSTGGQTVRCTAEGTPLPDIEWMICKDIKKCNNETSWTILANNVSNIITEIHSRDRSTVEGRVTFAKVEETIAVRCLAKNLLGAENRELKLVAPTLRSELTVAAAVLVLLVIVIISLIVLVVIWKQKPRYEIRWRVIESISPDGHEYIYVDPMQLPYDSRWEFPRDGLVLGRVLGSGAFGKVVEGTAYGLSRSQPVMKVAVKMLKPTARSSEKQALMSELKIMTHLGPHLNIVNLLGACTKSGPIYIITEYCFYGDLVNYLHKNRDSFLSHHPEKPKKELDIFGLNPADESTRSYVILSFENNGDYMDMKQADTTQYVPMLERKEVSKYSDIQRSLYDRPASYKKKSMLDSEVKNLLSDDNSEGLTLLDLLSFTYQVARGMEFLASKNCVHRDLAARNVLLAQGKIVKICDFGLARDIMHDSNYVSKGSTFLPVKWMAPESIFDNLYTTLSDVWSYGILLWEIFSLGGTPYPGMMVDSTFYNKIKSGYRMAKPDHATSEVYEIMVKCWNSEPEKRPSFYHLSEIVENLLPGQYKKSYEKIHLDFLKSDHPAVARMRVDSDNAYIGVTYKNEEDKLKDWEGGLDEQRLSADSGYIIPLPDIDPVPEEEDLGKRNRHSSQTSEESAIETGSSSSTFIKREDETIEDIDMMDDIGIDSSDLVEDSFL
Protocol: as §9

CSF1R [2] = molecular target: T1, CSF1R; assay: Z'-Lyte biochemical kinase assay (SelectScreen), CSF1R; settings: at 50 nM, in duplicate
Protocol: as §9

PDGFRB = PDGFRB (Homo sapiens, UniProt P09619); assay: Z'-Lyte biochemical kinase assay (SelectScreen), PDGFRB; settings: at 50 nM, in duplicate
PDGFRB, sequence (P09619 33-1106): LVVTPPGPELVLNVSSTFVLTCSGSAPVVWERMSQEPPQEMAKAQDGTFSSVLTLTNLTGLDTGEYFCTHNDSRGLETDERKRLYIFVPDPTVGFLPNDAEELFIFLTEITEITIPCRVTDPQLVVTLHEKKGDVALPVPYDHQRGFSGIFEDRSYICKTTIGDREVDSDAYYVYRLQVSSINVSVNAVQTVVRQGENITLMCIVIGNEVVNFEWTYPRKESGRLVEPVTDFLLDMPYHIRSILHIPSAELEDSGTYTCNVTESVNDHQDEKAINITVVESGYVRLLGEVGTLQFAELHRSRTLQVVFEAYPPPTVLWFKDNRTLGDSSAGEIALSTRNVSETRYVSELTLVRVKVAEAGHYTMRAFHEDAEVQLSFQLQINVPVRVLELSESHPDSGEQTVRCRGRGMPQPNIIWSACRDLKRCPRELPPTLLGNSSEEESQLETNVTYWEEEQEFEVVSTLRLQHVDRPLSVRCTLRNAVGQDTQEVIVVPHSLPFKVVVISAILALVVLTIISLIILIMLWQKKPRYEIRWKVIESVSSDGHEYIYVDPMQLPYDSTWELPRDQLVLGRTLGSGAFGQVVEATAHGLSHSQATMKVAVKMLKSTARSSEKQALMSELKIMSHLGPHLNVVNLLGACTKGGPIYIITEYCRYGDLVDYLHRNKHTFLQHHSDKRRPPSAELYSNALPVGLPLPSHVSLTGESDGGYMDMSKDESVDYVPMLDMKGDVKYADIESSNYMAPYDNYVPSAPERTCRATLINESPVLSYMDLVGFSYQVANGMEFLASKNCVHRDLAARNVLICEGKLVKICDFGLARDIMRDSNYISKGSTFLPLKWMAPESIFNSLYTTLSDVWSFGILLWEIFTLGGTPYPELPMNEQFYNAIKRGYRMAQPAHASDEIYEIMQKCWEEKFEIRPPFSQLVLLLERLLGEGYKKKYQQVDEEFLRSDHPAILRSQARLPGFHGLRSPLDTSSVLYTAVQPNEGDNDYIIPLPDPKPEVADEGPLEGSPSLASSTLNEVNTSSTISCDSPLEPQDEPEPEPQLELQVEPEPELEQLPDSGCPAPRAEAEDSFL
Protocol: as §9

Kit = Kit (Homo sapiens, UniProt P10721); assay: Z'-Lyte biochemical kinase assay (SelectScreen), Kit; settings: at 50 nM, in duplicate
Kit, sequence (P10721 26-976): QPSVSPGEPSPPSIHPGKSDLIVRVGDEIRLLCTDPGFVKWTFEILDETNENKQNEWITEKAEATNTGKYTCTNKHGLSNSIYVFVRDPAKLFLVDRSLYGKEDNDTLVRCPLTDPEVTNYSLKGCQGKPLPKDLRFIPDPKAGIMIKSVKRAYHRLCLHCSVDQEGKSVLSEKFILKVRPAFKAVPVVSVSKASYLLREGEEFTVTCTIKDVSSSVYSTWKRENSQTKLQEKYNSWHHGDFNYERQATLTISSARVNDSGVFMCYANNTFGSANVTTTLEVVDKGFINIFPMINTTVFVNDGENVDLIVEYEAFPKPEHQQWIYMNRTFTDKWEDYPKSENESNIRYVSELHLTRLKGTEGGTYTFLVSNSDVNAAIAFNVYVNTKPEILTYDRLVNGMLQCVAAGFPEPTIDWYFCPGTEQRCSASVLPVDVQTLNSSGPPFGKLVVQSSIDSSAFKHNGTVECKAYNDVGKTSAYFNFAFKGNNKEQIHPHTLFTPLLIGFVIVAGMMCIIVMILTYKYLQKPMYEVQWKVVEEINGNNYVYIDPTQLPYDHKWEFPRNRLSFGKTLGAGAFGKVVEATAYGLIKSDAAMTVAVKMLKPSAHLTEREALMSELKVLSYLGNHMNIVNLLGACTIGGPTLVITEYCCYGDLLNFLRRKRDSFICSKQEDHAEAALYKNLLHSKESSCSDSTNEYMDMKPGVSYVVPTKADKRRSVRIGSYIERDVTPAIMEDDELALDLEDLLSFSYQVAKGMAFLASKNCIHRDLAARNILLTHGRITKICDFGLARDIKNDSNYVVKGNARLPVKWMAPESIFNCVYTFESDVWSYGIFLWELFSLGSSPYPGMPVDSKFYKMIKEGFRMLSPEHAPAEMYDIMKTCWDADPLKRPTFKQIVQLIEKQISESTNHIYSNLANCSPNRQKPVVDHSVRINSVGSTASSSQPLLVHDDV
Protocol: as §9

[3] = 32 vs CC395, 44 vs CC396, 108 vs CC397

CC(C)C[C@H](CN)CC(=O)O [Pregabalin, pregabalin]
Analgesic effect expressed as % MPE (male C57Bl6J mice; +1 h): 80.7 ± 10.8 % MPE | Analgesic effect expressed as % of baseline (male C57Bl6J mice; +1 h): 81.2 ± 7.9 % of baseline | Analgesic effect expressed as % MPE (male C57Bl6J mice; +2 h): 84.6 ± 10.6 % MPE | Analgesic effect expressed as % of baseline (male C57Bl6J mice; +2 h): 86.0 ± 9.1 % of baseline | Analgesic effect expressed as % MPE (male C57Bl6J mice; +4 h): 33.9 ± 5.8 % MPE | Analgesic effect expressed as % of baseline (male C57Bl6J mice; +4 h): 45.0 ± 5.3 % of baseline | Analgesic effect expressed as % MPE (male C57Bl6J mice; +6 h): 5.9 ± 4.3 % MPE | Analgesic effect expressed as % of baseline (male C57Bl6J mice; +6 h): 23.5 ± 2.1 % of baseline | Analgesic effect expressed as % MPE (male C57B16J mice; +1 h): 76.6 ± 15.4 % MPE | Analgesic effect expressed as % of baseline (male C57B16J mice; +1 h): 80.6 ± 12.4 % of baseline | Analgesic effect expressed as % MPE (male C57B16J mice; +2 h): 79.5 ± 13.7 % MPE | Analgesic effect expressed as % of baseline (male C57B16J mice; +2 h): 85.7 ± 10.7 % of baseline | Analgesic effect expressed as % MPE (male C57B16J mice; +4 h): 31.0 ± 17.0 % MPE | Analgesic effect expressed as % of baseline (male C57B16J mice; +4 h): 45.6 ± 13.0 % of baseline | Analgesic effect expressed as % MPE (male C57B16J mice; +6 h): 10.9 ± 7.5 % MPE | Analgesic effect expressed as % of baseline (male C57B16J mice; +6 h): 30.3 ± 4.8 % of baseline

COc1ccc2c(Oc3cccc(C(=O)NCc4ccncc4)c3C)ccnc2c1 [compound 32, 3-[(7-methoxy-4-quinolyl)oxy]-2-methyl-N-(4-pyridylmethyl)benzamide]
IC50 (CSF1R [1]; Table 9): 26 nM | IC50 (M-NFS-60 cells; Table 9): 34 nM

COc1cc2nccc(Oc3cccc(CC(=O)NCc4ccncc4)c3)c2cc1OC [CC400, reference compound]
IC50 (CSF1R [1]; Table 10): 2270 nM | IC50 (M-NFS-60 cells; Table 10): 4220 nM

COc1ccc2c(Oc3cccc(C(=O)NCc4ccncc4F)c3C)ccnc2c1 [compound 44]
fold decrease in IC50 against HEK-CSF1R-STAT5 compared to quinazoline-based comparative compound (CSF1R [1]; [3]): 86 fold | IC50 (CSF1R [1]; Table 9): 7 nM | fold decrease in IC50 against M-NFS-60 compared to quinazoline-based comparative compound (M-NFS-60 cells; [3]): 22 fold | IC50 (M-NFS-60 cells; Table 9): 19 nM

COc1cc2nccc(Oc3cccc(C(=O)NCc4ccncc4)c3)c2cc1OC [compound 398]
IC50 (CSF1R [1]; Table 10): 58 nM | fold decrease in IC50 against HEK-CSF1R-STAT5 compared to CC399 (CSF1R [1]; vs CC399): 61 fold | fold decrease in IC50 against HEK-CSF1R-STAT5 compared to CC400 (CSF1R [1]; vs CC400): 39 fold | fold decrease in IC50 against HEK-CSF1R-STAT5 compared to CC401 (CSF1R [1]; vs CC401): 67 fold | IC50 (M-NFS-60 cells; Table 10): 198 nM | fold decrease in IC50 against M-NFS-60 compared to CC399 (M-NFS-60 cells; vs CC399): 26 fold | fold decrease in IC50 against M-NFS-60 compared to CC400 (M-NFS-60 cells; vs CC400): 21 fold | fold decrease in IC50 against M-NFS-60 compared to CC401 (M-NFS-60 cells; vs CC401): 38 fold

COc1cc2nccc(Oc3cccc(CC(=O)Nc4ccncc4)c3)c2cc1OC [CC401, reference compound]
IC50 (CSF1R [1]; Table 10): 3850 nM | IC50 (M-NFS-60 cells; Table 10): 7510 nM

Cc1c(Oc2ncnc3cc(Cl)ccc23)cccc1C(=O)NCc1ccncc1 [CC 397, 3-(7-chloroquinazolin-4-yl)oxy-2-methyl-N-(4-pyridylmethyl)benzamide, reference compound]
IC50 (CSF1R [1]; Table 9): 4150 nM | IC50 (M-NFS-60 cells; Table 9): 1260 nM

COc1ccc2c(Oc3cccc(C(=O)NCc4ccncc4)c3C)ncnc2c1 [CC 395, 3-(7-methoxyquinazolin-4-yl)oxy-2-methyl-N-(4-pyridylmethyl)benzamide, reference compound]
IC50 (CSF1R [1]; Table 9): 926 nM | IC50 (M-NFS-60 cells; Table 9): 636 nM

COc1ccc2c(Oc3cccc(C(=O)NCc4ccncc4F)c3C)ncnc2c1 [CC 396, N-[(3-fluoro-4-pyridyl)methyl]-3-(7-methoxyquinazolin-4-yl)oxy-2-methyl-benzamide, reference compound]
IC50 (CSF1R [1]; Table 9): 600 nM | IC50 (M-NFS-60 cells; Table 9): 415 nM

Cc1c(Oc2ccnc3cc(Cl)ccc23)cccc1C(=O)NCc1ccncc1 [compound 108, 3-[(7-chloro-4-quinolyl)oxy]-2-methyl-N-(4-pyridylmethyl)benzamide]
IC50 (CSF1R [1]; Table 9): 29 nM | IC50 (M-NFS-60 cells; Table 9): 58 nM

COc1cc2nccc(Oc3cccc(C(=O)N[C@H](C)c4ccccc4)c3)c2cc1OC [compound 24]
inhibition at 0.05 µM (FLT3): 44% | inhibition at 0.05 µM (PDGFRA): 24% | inhibition at 0.05 µM (CSF1R [2]): 97% | inhibition at 0.05 µM (PDGFRB): 34% | inhibition at 0.05 µM (Kit): 29%

CNc1ccc2c(Oc3cccc(C(=O)NCc4ccncc4)c3C)ccnc2c1 [compound 148]
inhibition at 0.05 µM (FLT3): 7% | inhibition at 0.05 µM (PDGFRA): 4% | inhibition at 0.05 µM (CSF1R [2]): 75% | inhibition at 0.05 µM (PDGFRB): 12% | inhibition at 0.05 µM (Kit): 0%

COc1ccccc1CNC(=O)c1ccc(F)c(Oc2ccnc3ccccc23)c1 [compound 99]
inhibition at 0.05 µM (FLT3): 26% | inhibition at 0.05 µM (PDGFRA): 17% | inhibition at 0.05 µM (CSF1R [2]): 75% | inhibition at 0.05 µM (PDGFRB): 20% | inhibition at 0.05 µM (Kit): 0%

COc1cc2nccc(Oc3cccc(NC(=O)Cc4ccncc4)c3)c2cc1OC [CC399, reference compound]
IC50 (CSF1R [1]; Table 10): 3540 nM | IC50 (M-NFS-60 cells; Table 10): 5210 nM

Cc1c(Oc2ccnc3cc(N4CCC4)ccc23)cccc1C(=O)NCc1ccncc1 [compound 150]
inhibition at 0.05 µM (FLT3): 12% | inhibition at 0.05 µM (PDGFRA): 8% | inhibition at 0.05 µM (CSF1R [2]): 81% | inhibition at 0.05 µM (PDGFRB): 15% | inhibition at 0.05 µM (Kit): 3%
